# Measurements published in ChEMBL document CHEMBL4219241, “Design, synthesis, and structure-activity relationships of novel imidazo[4,5-c]pyridine derivatives as potent non-nucleoside inhibitors of hepatitis C virus NS5B” (Bioorg Med Chem, 2018).
# Columns and labels:
# [1] = molecular target: T1, RNA-directed RNA polymerase (Hepacivirus hominis, UniProt O39930); experiment: Inhibition of Hepatitis C virus genotype 1b NS5B RNA-dependent-RNA polymerase assessed as reduction in viral replication after 72 hrs by indirect immunofluorescence assay; design: species or system Hepatitis C virus subtype 1b
# T1 sequence (O39930 whole entry): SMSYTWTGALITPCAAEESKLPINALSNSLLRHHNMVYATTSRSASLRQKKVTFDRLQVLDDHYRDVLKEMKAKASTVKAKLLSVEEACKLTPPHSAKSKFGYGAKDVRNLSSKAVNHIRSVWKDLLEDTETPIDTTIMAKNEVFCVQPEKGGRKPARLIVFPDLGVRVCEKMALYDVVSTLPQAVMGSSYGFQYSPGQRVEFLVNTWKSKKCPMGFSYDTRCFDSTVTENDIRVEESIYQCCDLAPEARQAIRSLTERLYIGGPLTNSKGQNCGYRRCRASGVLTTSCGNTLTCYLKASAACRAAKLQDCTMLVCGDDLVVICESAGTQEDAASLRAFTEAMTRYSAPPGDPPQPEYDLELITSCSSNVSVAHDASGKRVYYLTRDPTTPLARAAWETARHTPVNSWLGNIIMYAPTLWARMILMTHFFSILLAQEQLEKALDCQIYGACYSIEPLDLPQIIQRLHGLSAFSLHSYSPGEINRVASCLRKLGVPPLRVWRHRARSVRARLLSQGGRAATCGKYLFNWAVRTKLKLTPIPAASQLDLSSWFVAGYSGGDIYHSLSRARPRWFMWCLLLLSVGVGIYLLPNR
# [2] = molecular target: T1, RNA-directed RNA polymerase; experiment: Inhibition of Hepatitis C virus genotype 1b NS5B RNA-dependent-RNA polymerase; design: species or system Hepatitis C virus subtype 1b
# [3] = molecular target: RNA-directed RNA polymerase (Hepacivirus hominis) (UniProt O39930); experiment: Potency index, ratio of sofosbuvir EC50 to test compound EC50 for inhibition of Hepatitis C virus genotype 1b NS5B RNA-dependent-RNA polymerase assessed as reduction in viral replication; settings: Hepatitis C virus subtype 1b
# RNA-directed RNA polymerase (Hepacivirus hominis), sequence (O39930 1-591): as the sequence (O39930 whole entry) above
# [4] = AUC (0 to infinity) in Sprague-Dawley rat at 35 mg/kg, po administered via gavage by UPLC-MS analysis; format: ADME, organism-based; design: dose 35 mg/kg, route oral, time infinity; settings: in vivo
# [5] = Terminal half life in Sprague-Dawley rat at 35 mg/kg, po administered via gavage by UPLC-MS analysis; format: ADME, organism-based; settings: in vivo, read-out: beta t1/2 (converted)
# [6] = Tmax in Sprague-Dawley rat at 35 mg/kg, po administered via gavage by UPLC-MS analysis; format: ADME, organism-based; settings: in vivo
# [7] = Apparent volume of distribution during terminal phase in Sprague-Dawley rat at 35 mg/kg, po administered via gavage by UPLC-MS analysis; format: ADME, organism-based; settings: in vivo, read-out: Vz/F
# [8] = Apparent clearance during terminal phase in Sprague-Dawley rat at 35 mg/kg, po administered via gavage by UPLC-MS analysis; format: ADME, organism-based; settings: in vivo, read-out: CLz/F (converted)
# [9] = MRT (0 to infinity) in Sprague-Dawley rat at 35 mg/kg, po administered via gavage by UPLC-MS analysis; format: ADME, organism-based; settings: in vivo
# [10] = Cmax in Sprague-Dawley rat at 35 mg/kg, po administered via gavage by UPLC-MS analysis; format: ADME, organism-based; design: dose 35 mg/kg, route oral; settings: in vivo
Compound,EC50 [1],other results
Fc1ccccc1-c1nc2ccn(Cc3nc4ccccc4n3-c3ccccc3)cc-2n1,Not Active,
Fc1ccccc1-c1nc2ccn(Cc3ccc(-c4ccc(C(F)(F)F)cc4C(F)(F)F)nn3)cc-2n1 [TEGOBUVIR],,EC50 [2]: 2.9 nM
Cc1cc(C)n2nc(Cn3ccc4nc(-c5ccccc5F)nc-4c3)nc2n1,Not Active,
Fc1ccccc1-c1nc2ccn(Cc3cn(Cc4nc5ccccc5n4-c4cccc(C(F)(F)F)c4)nn3)cc-2n1,Not Active,
Fc1ccccc1-c1nc2ccn(Cc3cn(Cc4nc5ccccc5n4-c4ccccc4)nn3)cc-2n1,Not Active,
Cc1ccc(-n2c(Cn3ccc4nc(-c5ccccc5F)nc-4c3)nc3ccccc32)cc1,Not Active,
Fc1ccccc1-c1nc2ccn(Cc3cn(-c4cc(C(F)(F)F)cc(C(F)(F)F)c4)nn3)cc-2n1,Not Active,
Fc1ccccc1-c1nc2ccn(Cc3cn(-c4ccccc4)nn3)cc-2n1,,Ratio EC50 [3]: 3
Fc1ccccc1-c1nc2ccn(Cc3nc4ccccc4n3-c3cccc(C(F)(F)F)c3)cc-2n1,Not Active,
Fc1ccccc1-c1nc2ccn(Cc3nc4ccccc4n3-c3cccc(Cl)c3)cc-2n1,Not Active,
COc1ccc(-n2cc(Cn3ccc4nc(-c5ccccc5F)nc-4c3)nn2)cc1,,AUC(0-inf) [4]: 72500 ng·h/mL; half-life [5]: 2.88 h; Tmax [6]: 1.33 h; Vd/F [7]: 2.12 L/kg; CL/F [8]: 8.33 mL/min/kg; MRT inf [9]: 2.18 h; Cmax [10]: 22300 ng/mL
Fc1ccccc1-c1nc2ccn(Cc3cn4cccnc4n3)cc-2n1,Not Active,
Cc1cc(C)n2cc(Cn3ccc4nc(-c5ccccc5F)nc-4c3)nc2n1,Not Active,
